Read-outs that look alike come from different tables or passages of the source.
Assays:
GPR55 = GPR55 (Homo sapiens, UniProt Q9Y2T6); assay: Repeat of proposed literature pairing (mass redistribution and/or internalization); assay type: cell-based; set-up: hIL-2Ra signal peptide (N); expressed in transfected cells; settings: target GPR55
Source text: (§1) DMR assays provide a single integrated readout of ligand-dependent cellular response, utilizing an optical biosensor in specialized microplates to detect wavelength shifts of reflected light as it passes through the biosensor and the lower portion of the cell (∼150-200 nm). As a signal pathway agnostic approach, DMR assays are well-suited to the study of GPCRs ([Fang et al., 2008], [Schröder et al., 2011]). The mass redistribution response (Δ picometer (pm)) likely reflects a number of intracellular events, including cytoskeletal rearrangement, protein trafficking and receptor internalization. […] After 3-5 min baseline recordings, peptides (10 μM) were added in duplicate wells using an electronic 384-channel Viaflo pipette (Integra Biosciences, Switzerland) and DMR responses were measured for 60 min at 22°C. […] Real-time data were processed using the BT to column converter MS-Excel macro (Corning) and analyzed in GraphPad Prism 7.0. DMR recordings in peptide screening experiments were buffer and solvent corrected and the area under the curve (AUC) was quantified. […]
(§2) A TR-FRET real-time internalization assay was used to examine peptide-dependent changes in orphan receptor localization as described previously ([Foster and Bräuner-Osborne, 2018]). […] For peptide screening analysis (both DMR and internalization assays), we calculated the area under the curve from the real-time traces. […]

GPR3 = settings: target GPR3
BRS3 = assay: Repeat of proposed literature pairing (mass redistribution and/or internalization); assay type: cell-based, human; settings: target BRS3
GPR68 = assay: as above; assay type: cell-based, human; settings: target GPR68
NPY4R = assay: β-arrestin recruitment (Tango), known peptide receptors; assay type: cell-based, human; settings: endogenous ligand(s) included in peptide library
Source text: Supplement mmc6.xlsx, sheet "Peptide GPCR controls" | column: Confirmed?

PRRP = assay: as above; assay type: cell-based, human
Source text: Supplement mmc6.xlsx, sheet "Peptide GPCR controls" | column: Confirmed?; Notes

human GPCRs = molecular target: human GPCRs; set-up: method as in Guide to Pharmacology database; settings: max reported value, ref Guide to Pharmacology database, cited from earlier work
Source text: Supplement mmc1.xlsx, sheet "HumanGPCRLigands" | column: pKi_value; pKd_value; pEC50_value; pIC50_value

NPSR = molecular target: T1, NPSR (Homo sapiens, UniProt Q6W5P4); assay: β-arrestin recruitment (Tango), known peptide receptors; assay type: cell-based; settings: mean, n = 3
T1 construct: host or cells: HTLA cells (HEK293-derived)
T1 sequence (Q6W5P4 whole entry): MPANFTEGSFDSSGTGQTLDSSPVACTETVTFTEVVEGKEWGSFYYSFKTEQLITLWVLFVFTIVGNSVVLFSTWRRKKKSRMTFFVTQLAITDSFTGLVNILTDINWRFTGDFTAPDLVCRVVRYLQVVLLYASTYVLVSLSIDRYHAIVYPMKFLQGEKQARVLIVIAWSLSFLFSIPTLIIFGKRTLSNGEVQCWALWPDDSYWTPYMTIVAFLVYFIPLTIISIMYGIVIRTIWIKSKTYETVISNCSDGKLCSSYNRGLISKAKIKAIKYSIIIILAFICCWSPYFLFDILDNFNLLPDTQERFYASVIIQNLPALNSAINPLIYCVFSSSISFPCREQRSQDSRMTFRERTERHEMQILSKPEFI
Source text: (§3) Supplement mmc7.xlsx, sheet "Peptide validation data" | column: Emax; pEC50

OPRD1 = molecular target: T2, OPRD1 (Homo sapiens, UniProt P41143); assay: as above; assay type: cell-based; settings: mean, n = 3
T2 construct: host or cells: HTLA cells (HEK293-derived)
T2 sequence (P41143 whole entry): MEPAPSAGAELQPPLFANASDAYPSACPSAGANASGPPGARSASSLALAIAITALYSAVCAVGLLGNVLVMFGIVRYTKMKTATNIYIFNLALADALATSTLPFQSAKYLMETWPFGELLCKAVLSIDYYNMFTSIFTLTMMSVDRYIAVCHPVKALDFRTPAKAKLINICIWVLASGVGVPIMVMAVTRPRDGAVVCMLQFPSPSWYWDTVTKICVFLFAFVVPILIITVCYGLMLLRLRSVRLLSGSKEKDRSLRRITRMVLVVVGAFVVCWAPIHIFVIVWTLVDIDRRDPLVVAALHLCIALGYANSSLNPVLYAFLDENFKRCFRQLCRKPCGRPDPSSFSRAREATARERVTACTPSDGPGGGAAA
Source text: as §3

GPR1 = molecular target: T3, GPR1 (Homo sapiens, UniProt P46091); assay: Repeat of proposed literature pairing (mass redistribution and/or internalization); assay type: cell-based; set-up: host or cells: HTLA cells (HEK293-derived)
T3 sequence (P46091 1-355): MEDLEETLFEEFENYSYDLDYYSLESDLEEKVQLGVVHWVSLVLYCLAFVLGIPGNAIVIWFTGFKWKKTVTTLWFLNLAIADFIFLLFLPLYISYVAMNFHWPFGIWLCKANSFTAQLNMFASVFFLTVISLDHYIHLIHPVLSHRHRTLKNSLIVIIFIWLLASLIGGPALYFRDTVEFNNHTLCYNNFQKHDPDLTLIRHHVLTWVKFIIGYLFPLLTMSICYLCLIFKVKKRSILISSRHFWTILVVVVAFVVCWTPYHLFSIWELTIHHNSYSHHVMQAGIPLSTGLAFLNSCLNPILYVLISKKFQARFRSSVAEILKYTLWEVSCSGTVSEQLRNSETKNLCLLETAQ
Source text: as §1, §2

MRGPRX2 = molecular target: T4, MRGPRX2 (Homo sapiens, UniProt Q96LB1); assay: as above; assay type: cell-based; settings: repeat of literature pairing across multiple assays; cleavage variants CST-14 and SRIF-28 tested; Figure S7A
T4 construct: host or cells: HTLA cells (HEK293-derived)
T4 sequence (Q96LB1 1-330): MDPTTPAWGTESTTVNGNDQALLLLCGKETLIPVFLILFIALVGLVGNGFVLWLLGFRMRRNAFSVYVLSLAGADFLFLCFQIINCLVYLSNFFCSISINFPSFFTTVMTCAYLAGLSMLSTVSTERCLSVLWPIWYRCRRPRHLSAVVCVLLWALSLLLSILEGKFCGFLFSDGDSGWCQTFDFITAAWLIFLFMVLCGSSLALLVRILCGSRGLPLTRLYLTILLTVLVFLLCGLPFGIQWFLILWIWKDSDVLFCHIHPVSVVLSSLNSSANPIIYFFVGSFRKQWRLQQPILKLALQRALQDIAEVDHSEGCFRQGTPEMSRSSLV
Source text: as §1, §2

[1] = reported ligand tested on receptor-expressing cell line
[2] = receptor CMKLR1 (cml1_human, Q99788)

GPR55, sequence (Q9Y2T6 2-319 limits assumed): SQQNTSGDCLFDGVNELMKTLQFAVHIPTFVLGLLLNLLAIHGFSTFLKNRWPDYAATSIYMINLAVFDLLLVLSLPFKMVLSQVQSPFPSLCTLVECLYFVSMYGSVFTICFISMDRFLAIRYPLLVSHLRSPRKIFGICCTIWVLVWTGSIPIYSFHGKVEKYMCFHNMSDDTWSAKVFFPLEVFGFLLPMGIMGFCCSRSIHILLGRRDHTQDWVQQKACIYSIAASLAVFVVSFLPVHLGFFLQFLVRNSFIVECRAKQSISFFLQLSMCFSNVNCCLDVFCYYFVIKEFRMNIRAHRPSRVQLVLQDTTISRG

## Cc1c(C(=O)NN2CCCCC2)nn(-c2ccc(Cl)cc2Cl)c1-c1ccc(I)cc1 [AM251]
GPR55
  Comment (response in DMR / internalization assays): Robust response
GPR55; [1]
  Active in DMR/internalization: Yes

## [Cl-].c1ccc2c(c1)[I+]c1ccccc1-2 [Diphenyleneiodonium chloride (DPI)]
GPR3
  Comment (response in DMR / internalization assays): Robust response in DMR, no response in internalization assay
GPR3; [1]
  Active in DMR/internalization: Yes (DMR)

## O[C@@](Cc1ncc(CC2(C(F)(F)F)CC2)[nH]1)(c1ccc(-n2cccn2)cc1)C(F)(F)F [MK-5046]
BRS3
  Comment (response in DMR / internalization assays): Robust response
BRS3; [1]
  Active in DMR/internalization: Yes

## Nc1nc(NCc2ccccc2)nc(-c2ccccc2CO)n1 [ZINC67740571 (ogerin)]
GPR68
  Comment (response in DMR / internalization assays): Robust response in DMR, no response in internalization assay
GPR68; [1]
  Active in DMR/internalization: Yes (DMR)

## Pancreatic hormone (PH)
NPY4R
  Confirmed? (confirmation of b-arrestin recruitment): No

## Peptide YY (PYY)
NPY4R
  Confirmed? (confirmation of b-arrestin recruitment): No

## PrRP-31
PRRP; endogenous ligand(s) included in peptide library, Tango
  Confirmed? (confirmation of b-arrestin recruitment): Yes
PRRP; screen and validation
  Notes (b-arrestin recruitment response): No response in screen, small response in validation
Human GPCRs; receptor PRLHR (prlhr_human, P49683)
  pKi_value: 9.2

## SFRNGVGSGVKKTSF [Peptide 107]
NPSR
  Emax, Tango (fold over basal): 2.2 fold over basal
  pEC50, Tango (fold over basal): 6.03

## VLDQLSA [Peptide 25]
OPRD1
  Emax, Tango (fold over basal): 5.0 fold over basal
  pEC50, Tango (fold over basal): 5.58

## chemerin [reference compound]
Human GPCRs; [2]
  pEC50_value: 8.5
  pKd_value: 8.3
GPR1; repeat of literature pairing
  Peptide pairing for orphan receptor GPR1 (confirmed/unconfirmed): Confirmed peptide pairings for orphans
GPR1; repeat of literature pairing across multiple assays, Figure S7A, Tables S5 and S7
  receptor-dependent activation by proposed ligand, GPR1: selective receptor-dependent activation

## cortistatin
MRGPRX2
  receptor-dependent activation by proposed ligand, MRGPRX2: selective receptor-dependent activation

## somatostatin [reference compound]
MRGPRX2
  receptor-dependent activation by proposed ligand, MRGPRX2: selective receptor-dependent activation
Human GPCRs; receptor SSTR1 (ssr1_human, P30872)
  pKi_value: 9.4
Human GPCRs; receptor SSTR2 (ssr2_human, P30874)
  pKi_value: 10.2
Human GPCRs; receptor SSTR3 (ssr3_human, P32745)
  pKi_value: 9.9
Human GPCRs; receptor SSTR4 (ssr4_human, P31391)
  pKi_value: 9.2
Human GPCRs; receptor SSTR5 (ssr5_human, P35346)
  pKi_value: 10.3
